This passage reports IC50 results from patent US20250018014A1, “METHOD FOR TREATING AND/OR PREVENTING REGNASE-1-RELATED DISEASE” (OSAKA UNIVERSITY, priority 2018, published 2025).

Like-named read-outs stand apart in the source and are kept apart here. Residues, ends and D or L forms follow the SMILES beside them.

Assay [1] deals with T1, FL_Reg1 (full-length human Regnase-1) phosphorylation by TBK1 (Homo sapiens, UniProt Q5D1E8).
T1 construct: made in house; host or cells: Expi293 cells
T1 sequence (Q5D1E8 1-599): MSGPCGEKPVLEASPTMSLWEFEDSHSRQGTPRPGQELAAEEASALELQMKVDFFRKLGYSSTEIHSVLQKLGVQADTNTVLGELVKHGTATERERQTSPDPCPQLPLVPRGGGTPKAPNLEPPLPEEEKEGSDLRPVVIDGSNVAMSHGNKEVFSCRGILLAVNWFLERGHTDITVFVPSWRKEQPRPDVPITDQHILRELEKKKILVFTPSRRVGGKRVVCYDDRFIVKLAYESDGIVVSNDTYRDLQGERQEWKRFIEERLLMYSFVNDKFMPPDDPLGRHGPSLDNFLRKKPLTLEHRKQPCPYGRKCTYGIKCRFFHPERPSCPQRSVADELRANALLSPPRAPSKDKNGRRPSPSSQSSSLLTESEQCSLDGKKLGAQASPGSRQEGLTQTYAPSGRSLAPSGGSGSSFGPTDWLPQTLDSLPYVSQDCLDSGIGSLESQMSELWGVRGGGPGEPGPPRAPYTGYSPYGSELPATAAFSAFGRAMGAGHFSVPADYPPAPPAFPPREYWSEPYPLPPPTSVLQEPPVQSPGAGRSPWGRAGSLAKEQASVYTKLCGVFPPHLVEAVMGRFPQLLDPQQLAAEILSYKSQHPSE
Description: Regnase-1 phosphorylation inhibition by compounds (AlphaScreen), TBK1, full-length Regnase-1. The assay is classed as biochemical. In outline:
(§1)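 FLAG/BirA-tagged human Regnase-1 constructs (full-length, 1–546 or 301–599), expressed in Expi293 cells, were used at 2 nM with compound and phosphorylated by IKKβ or TBK1 with 10 μM ATP, DTT, vanadate and MnCl2 for 2 h at room temperature. Phospho-Regnase-1 was read by AlphaScreen; IC50 came from % inhibition curves normalised to DMSO and Regnase-1-alone signals.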

The target in assay [2] is T2, FL_Reg1 (full-length human Regnase-1) phosphorylation by IKKβ (Homo sapiens, UniProt Q5D1E8).
T2 construct: made in house; host or cells: Expi293 cells
T2 sequence (Q5D1E8 1-599): T1 sequence (Q5D1E8 1-599)
Description: Regnase-1 phosphorylation inhibition by compounds (AlphaScreen), IKKβ, full-length Regnase-1. The assay is classed as biochemical. In outline: as §1
(In general: Alpha assays give light when donor and acceptor beads are brought close together.)

In assay [3] the target is T3, binding between TBK1 and full-length Regnase-1 (FL_Reg1) (Homo sapiens, UniProt Q5D1E8).
T3 construct: made in house; host or cells: Expi293 cells
T3 sequence (Q5D1E8 1-599): T1 sequence (Q5D1E8 1-599)
Description: Inhibition of kinase-Regnase-1 binding by the compounds (AlphaScreen), TBK1. In outline:
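Read-out was AlphaScreen luminescence using anti-FLAG acceptor and glutathione donor beads, with Regnase-1 alone set as 100% and DMSO as 0% inhibition to fit IC50. Compound was premixed with 2.5 nM full-length human Regnase-1 (Expi293-expressed, FLAG/BirA-tagged). 2.5 nM TBK1 or IKKβ was then added for 2 h at room temperature.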

Setting [4] is: Table 11, 2 nM Regnase-1, AlphaScreen, read-out: 50% inhibition concentration, Regnase-1 phosphorylation, FL_Reg1, TBK1.
[5] abbreviates: Table 11, 2 nM Regnase-1, AlphaScreen, read-out: 50% inhibition concentration, Regnase-1 phosphorylation, FL_Reg1, IKKβ.
The mark [6] stands for this setting: Table 12, 2.5 nM Regnase-1, 2.5 nM TBK1, AlphaScreen, read-out: 50% inhibition concentration, binding between Regnase-1 and TBK1, FL_Reg1.
The mark [7] stands for this setting: Table 13, phosphorylation by TBK1, read-out: Phosphorylation inhibition FL_Reg1, 50% inhibition concentration (TBK1).
The mark [8] stands for this setting: Table 14, phosphorylation by IKKβ, read-out: Phosphorylation inhibition FL_Reg1, 50% inhibition concentration (IKKβ).
Setting [9] is: Table 13, binding between TBK1 and Regnase-1, read-out: Binding inhibition FL_Reg1, 50% inhibition concentration (TBK1).

On to `CC[C@H](C)[C@@H]1NC(=O)[C@H](CC(N)=O)NC(=O)[C@H](Cc2ccc(O)cc2)NC(=O)[C@H](Cc2c[nH]c3ccccc23)NC(=O)[C@H](C)NC(=O)[C@H](CC(N)=O)NC(=O)[C@H](CO)NC(=O)[C@H](Cc2c[nH]cn2)NC(=O)[C@H](C)N(C)C(=O)C[C@@H](C(=O)N2CCCC2)NC(=O)[C@H](Cc2c[nH]c3ccccc23)NC1=O` [PP5] (HELM PEPTIDE1{[meA].H.S.N.A.W.Y.N.I.W.D.[C1CCN([*:1])C1]}$PEPTIDE1,PEPTIDE1,1:R1-11:R3$$$V2.0), for which the IC50 is 24.2 µM in assay [1] (setting [4]), 23.6 µM in assay [2] (setting [5]) and 11.5 µM in assay [3] (setting [6]).
Consider `CC[C@H](C)[C@@H]1NC(=O)[C@H](Cc2c[nH]c3ccccc23)NC(=O)[C@@H](Cc2ccccc2)NC(=O)[C@H](CCCCN)NC(=O)[C@H](C)N(C)C(=O)C[C@@H](C(=O)N2CCCC2)NC(=O)[C@H](CCC(=O)O)NC(=O)[C@H](Cc2ccccc2)NC(=O)[C@H](CO)NC(=O)[C@H](Cc2c[nH]cn2)NC(=O)[C@H](Cc2c[nH]cn2)NC1=O` [PP20] (HELM PEPTIDE1{[meA].K.[dF].W.I.H.H.S.F.E.D.[C1CCN([*:1])C1]}$PEPTIDE1,PEPTIDE1,1:R1-11:R3$$$V2.0), for which the IC50 in assay [1] (setting [7]) was 38.5 µM; in assay [2] (setting [8]) it was 24.7 µM; in assay [3] (setting [9]), 47.6 µM.
`CC[C@H](C)[C@@H]1NC(=O)[C@H](CC(N)=O)NC(=O)[C@H](Cc2ccc(O)cc2)NC(=O)[C@H](Cc2c[nH]c3ccccc23)NC(=O)[C@H](CO)NC(=O)[C@H](CC(N)=O)NC(=O)[C@H](C)NC(=O)[C@H](Cc2ccc(O)cc2)NC(=O)CNC(=O)[C@H](C)N(C)C(=O)C[C@@H](C(=O)N2CCCC2)NC(=O)[C@H](Cc2c[nH]c3ccccc23)NC1=O` [PP2] (HELM PEPTIDE1{[meA].G.Y.A.N.S.W.Y.N.I.W.D.[C1CCN([*:1])C1]}$PEPTIDE1,PEPTIDE1,1:R1-12:R3$$$V2.0): the IC50 in assay [1] (setting [4]) turned out to be 21.7 µM; in assay [2] (setting [5]) it was 16.6 µM; in assay [3] (setting [6]), 15.5 µM.
For `CC[C@H](C)[C@@H]1NC(=O)[C@H](CCCNC(=N)N)NC(=O)[C@H](Cc2ccc(O)cc2)NC(=O)[C@H](Cc2c[nH]c3ccccc23)NC(=O)[C@H](C)NC(=O)[C@H](CO)NC(=O)[C@H](C)NC(=O)[C@H](Cc2c[nH]cn2)NC(=O)[C@H](CCCCN)NC(=O)[C@@H](C)N(C)C(=O)C[C@@H](C(=O)N2CCCC2)NC(=O)[C@H](Cc2c[nH]c3ccccc23)NC1=O` [PP3] (HELM PEPTIDE1{[C[C@H](C(=O)[*:2])N(C)[*:1]].K.H.A.S.A.W.Y.R.I.W.D.[C1CCN([*:1])C1]}$PEPTIDE1,PEPTIDE1,1:R1-12:R3$$$V2.0), the IC50 was determined as 3.9 µM in assay [1] (setting [4]), 4.6 µM in assay [2] (setting [5]) and 3.1 µM in assay [3] (setting [6]).
`CC[C@H](C)[C@@H]1NC(=O)[C@H](Cc2c[nH]c3ccccc23)NC(=O)[C@H](CCCNC(=N)N)NC(=O)[C@H](Cc2ccccc2)NC(=O)[C@H](CCC(N)=O)NC(=O)[C@H](C)NC(=O)[C@H](Cc2ccccc2)NC(=O)[C@H](CCCCN)NC(=O)[C@H](C)N(C)C(=O)C[C@@H](C(=O)N2CCCC2)NC(=O)[C@@H]2CCCN2C(=O)[C@H](Cc2ccc(O)cc2)NC1=O` [PP11] (HELM PEPTIDE1{[meA].K.F.A.Q.F.R.W.I.Y.P.D.[C1CCN([*:1])C1]}$PEPTIDE1,PEPTIDE1,1:R1-12:R3$$$V2.0): the values for the IC50 in assay [1] (setting [7]), in assay [2] (setting [8]) and in assay [3] (setting [9]) were 29.1 µM, 22.3 µM and 60.9 µM, respectively.
The matching figures for `CC[C@H](C)[C@@H]1NC(=O)[C@H](CC(=O)O)NC(=O)[C@H](C)N(C)C(=O)C[C@@H](C(=O)N2CCCC2)NC(=O)[C@H](Cc2ccc(O)cc2)NC(=O)[C@H](CC(=O)O)NC(=O)[C@H](Cc2c[nH]c3ccccc23)NC(=O)[C@H](Cc2ccc(O)cc2)NC(=O)[C@H](CC(=O)O)NC(=O)[C@H](Cc2ccccc2)NC(=O)[C@H](Cc2c[nH]c3ccccc23)NC1=O` [PP18] (HELM PEPTIDE1{[meA].D.I.W.F.D.Y.W.D.Y.D.[C1CCN([*:1])C1]}$PEPTIDE1,PEPTIDE1,1:R1-11:R3$$$V2.0): 0.6 µM, 0.4 µM and < 0.06 µM.
